These molecules were tested against T1, Human SGLT2 (hSGLT2) (Homo sapiens, UniProt P31639) (assay: Sodium-dependent glucose transport (14C-AMG uptake) assay in CHO cells stably expressing hSGLT2). Conditions: CHO cells expressing hSGLT2, 14C-AMG uptake, 37° C. for 2 h; single determinations; read-out: hSGLT2 Inhibitory Activity IC50.
T1 construct: expressed in transfected cells
T1 sequence (P31639 1-672): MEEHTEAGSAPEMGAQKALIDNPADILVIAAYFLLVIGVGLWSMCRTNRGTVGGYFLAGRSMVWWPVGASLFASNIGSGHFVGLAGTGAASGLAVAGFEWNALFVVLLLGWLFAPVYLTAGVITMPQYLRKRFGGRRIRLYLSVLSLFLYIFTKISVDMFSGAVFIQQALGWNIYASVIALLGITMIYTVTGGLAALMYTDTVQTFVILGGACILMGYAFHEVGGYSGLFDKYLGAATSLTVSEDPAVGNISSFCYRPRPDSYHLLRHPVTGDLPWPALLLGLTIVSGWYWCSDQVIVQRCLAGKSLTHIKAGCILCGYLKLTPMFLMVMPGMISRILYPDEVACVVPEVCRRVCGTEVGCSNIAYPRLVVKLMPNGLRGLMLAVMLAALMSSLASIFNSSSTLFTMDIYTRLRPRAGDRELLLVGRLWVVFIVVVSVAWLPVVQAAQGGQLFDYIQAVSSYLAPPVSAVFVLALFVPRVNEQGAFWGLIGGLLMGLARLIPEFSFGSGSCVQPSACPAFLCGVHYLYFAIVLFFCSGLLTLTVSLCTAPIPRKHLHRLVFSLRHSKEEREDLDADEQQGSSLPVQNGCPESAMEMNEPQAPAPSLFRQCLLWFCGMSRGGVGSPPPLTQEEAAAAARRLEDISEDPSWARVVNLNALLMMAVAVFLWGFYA
Assay type: cell-based
Procedure, shortened: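 Uptake of 14C-α-methyl-D-glucopyranoside (8 μM labeled, 1 mM unlabeled, NaCl buffer pH 7.4) measured over 2 h at 37 °C with inhibitor in hSGLT2-transfected CHO cells after 10 min choline-buffer pretreatment. Radioactivity by liquid scintillation; IC50 from nonlinear regression.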

Question: How did the IC50 turn out when `CCOC[C@H]1O[C@@H](c2ccc(Cl)c(Cc3ncc(-c4ccco4)s3)c2)[C@H](O)[C@@H](O)[C@@H]1O` [Example 140, (2S,3R,4R,5S,6R)-2-(4-Chloro-3-((5-(furan-2-yl)thiazol-2-yl)methyl)phenyl)-6-(ethoxymethyl)tetrahydro-2H-pyran-3,4,5-triol] was run?
Answer: The IC50 was 68.7 nM.

Question: How did the IC50 turn out when `OCCOC[C@H]1O[C@@H](c2ccc(Cl)c(Cc3ncc(-c4ccco4)s3)c2)[C@H](O)[C@@H](O)[C@@H]1O` [Example 141, (2S,3R,4R,5S,6R)-2-(4-Chloro-3-((5-(furan-2-yl)thiazol-2-yl)methyl)phenyl)-6-((2-hydroxyethoxy)methyl)tetrahydro-2H-pyran-3,4,5-triol] was run?
Answer: The IC50 was 30.9 nM.

Question: Which IC50 does the source give for `O[C@@H]1[C@@H](O)[C@H](c2ccc(Cl)c(Cc3ncc(-c4ccco4)s3)c2)O[C@H](CF)[C@H]1O` [Example 145, (2S,3R,4R,5S,6S)-2-(4-Chloro-3-((5-(furan-2-yl)thiazol-2-yl)methyl)phenyl)-6-(fluoromethyl)-tetrahydro-2H-pyran-3,4,5-triol] here?
Answer: The IC50 was 10.6 nM.

Question: For `C[C@H]1O[C@@H](c2ccc(Cl)c(Cc3ncc(-c4ccco4)s3)c2)[C@H](O)[C@@H](O)[C@@H]1O` [Example 146, (2S,3R,4S,5S,6R)-2-(4-Chloro-3-((5-(furan-2-yl)thiazol-2-yl)methyl)phenyl)-6-methyl-tetrahydro-2H-pyran-3,4,5-triol], which IC50 is on record?
Answer: Its IC50 is 7.01 nM.

Question: With `CCOC(=O)OC[C@H]1O[C@@H](c2ccc(Cl)c(Cc3ncc(-c4ccco4)s3)c2)[C@H](O)[C@@H](O)[C@@H]1O` [Example 160, ((2R,3S,4R,5R,6S)-6-(4-Chloro-3-((5-(furan-2-yl)thiazol-2-yl)methyl)phenyl)-3,4,5-trihydroxytetrahydro-2H-pyran-2-yl)methyl ethyl carbonate] as the molecule, how does the IC50 read?
Answer: The IC50 was 24 nM.

Question: Which IC50 does the source give for `CCCCOC(=O)OC[C@H]1O[C@@H](c2ccc(Cl)c(Cc3ncc(-c4ccco4)s3)c2)[C@H](O)[C@@H](O)[C@@H]1O` [Example 161, Butyl ((2R,3S,4R,5R,6S)-6-(4-chloro-3-((5-(furan-2-yl)thiazol-2-yl)methyl)phenyl)-3,4,5-trihydroxytetrahydro-2H-pyran-2-yl)methyl carbonate] here?
Answer: The IC50 was 5.08 nM.

Question: Which IC50 does the source give for `CC(C)(C)OC(=O)OC[C@H]1O[C@@H](c2ccc(Cl)c(Cc3ncc(-c4ccco4)s3)c2)[C@H](O)[C@@H](O)[C@@H]1O` [Example 162, tert-Butyl ((2R,3S,4R,5R,6S)-6-(4-chloro-3-((5-(furan-2-yl)thiazol-2-yl)methyl)phenyl)-3,4,5-trihydroxytetrahydro-2H-pyran-2-yl)methyl carbonate] here?
Answer: Its IC50 is 79.9 nM.

Question: `C=CCOC(=O)OC[C@H]1O[C@@H](c2ccc(Cl)c(Cc3ncc(-c4ccco4)s3)c2)[C@H](O)[C@@H](O)[C@@H]1O` [Example 163, Allyl ((2R,3S,4R,5R,6S)-6-(4-chloro-3-((5-(furan-2-yl)thiazol-2-yl)methyl)phenyl)-3,4,5-trihydroxytetrahydro-2H-pyran-2-yl)methyl carbonate] was tested. Which IC50 did it give?
Answer: Its IC50 is 11.4 nM.

Question: With `O=C(OCc1ccccc1)OC[C@H]1O[C@@H](c2ccc(Cl)c(Cc3ncc(-c4ccco4)s3)c2)[C@H](O)[C@@H](O)[C@@H]1O` [Example 164, Benzyl ((2R,3S,4R,5R,6S)-6-(4-chloro-3-((5-(furan-2-yl)thiazol-2-yl)methyl)phenyl)-3,4,5-trihydroxytetrahydro-2H-pyran-2-yl)methyl carbonate] as the molecule, how does the IC50 read?
Answer: Its IC50 is 2.44 nM.

Question: With `CCOC(=O)OC[C@H]1O[C@@H](c2ccc(Cl)c(Cc3ncc(-c4ccsc4)s3)c2)[C@H](O)[C@@H](O)[C@@H]1O` [Example 165, ((2R,3S,4R,5R,6S)-6-(4-Chloro-3-((5-(thiophen-3-yl)thiazol-2-yl)methyl)phenyl)-3,4,5-trihydroxytetrahydro-2H-pyran-2-yl)methyl ethyl carbonate] as the molecule, how does the IC50 read?
Answer: The IC50 was 7.39 nM.

Question: `OC[C@H]1O[C@@H](c2ccc(Cl)c(Cc3cnc(-c4ccccc4)s3)c2)[C@H](O)[C@@H](O)[C@@H]1O` [Example 183, (2S,3R,4R,5S,6R)-2-(4-Chloro-3-((2-phenylthiazol-5-yl)methyl)phenyl)-6-(hydroxymethyl)-tetrahydro-2H-pyran-3,4,5-triol] was tested. Which IC50 did it give?
Answer: Its IC50 is 5.76 nM.

Question: `OC[C@H]1O[C@@H](c2ccc(Cl)c(Cc3cnc(-c4ccco4)s3)c2)[C@H](O)[C@@H](O)[C@@H]1O` [Example 184, (2S,3R,4R,5S,6R)-2-(4-Chloro-3-((2-(furan-2-yl)thiazol-5-yl)methyl)phenyl)-6-(hydroxymethyl)tetrahydro-2H-pyran-3,4,5-triol] was tested. Which IC50 did it give?
Answer: Its IC50 is 1.42 nM.

Question: For `OC[C@H]1O[C@@H](c2ccc(Cl)c(Cc3cnc(-c4cc5ccccc5o4)s3)c2)[C@H](O)[C@@H](O)[C@@H]1O` [Example 185, (2S,3R,4R,5S,6R)-2-(3-((2-(Benzofuran-2-yl)thiazol-5-yl)methyl)-4-chlorophenyl)-6-(hydroxymethyl)tetrahydro-2H-pyran-3,4,5-triol], which IC50 is on record?
Answer: Its IC50 is 76.6 nM.

Question: `OC[C@H]1O[C@@H](c2ccc(Cl)c(Cc3cnc(-c4ccoc4)s3)c2)[C@H](O)[C@@H](O)[C@@H]1O` [Example 186, (2S,3R,4R,5S,6R)-2-(4-Chloro-3-((2-(furan-3-yl)thiazol-5-yl)methyl)phenyl)-6-(hydroxymethyl)tetrahydro-2H-pyran-3,4,5-triol] was tested. Which IC50 did it give?
Answer: The IC50 was 4.47 nM.

Question: Which IC50 does the source give for `OC[C@H]1O[C@@H](c2ccc(Cl)c(Cc3cnc(-c4cccs4)s3)c2)[C@H](O)[C@@H](O)[C@@H]1O` [Example 187, (2S,3R,4R,5S,6R)-2-(4-Chloro-3-((2-(thiophen-2-yl)thiazol-5-yl)methyl)phenyl)-6-(hydroxymethyl)tetrahydro-2H-pyran-3,4,5-triol] here?
Answer: Its IC50 is 2.79 nM.

Question: Which IC50 does the source give for `Cc1ccc(-c2ncc(Cc3cc([C@@H]4O[C@H](CO)[C@@H](O)[C@H](O)[C@H]4O)ccc3Cl)s2)s1` [Example 188, (2S,3R,4R,5S,6R)-2-(4-Chloro-3-((2-(5-methylthiophen-2-yl)thiazol-5-yl)methyl)phenyl)-6-(hydroxymethyl)tetrahydro-2H-pyran-3,4,5-triol] here?
Answer: Its IC50 is 10.4 nM.

Question: How did the IC50 turn out when `OC[C@H]1O[C@@H](c2ccc(Cl)c(Cc3cnc(-c4ccc(Cl)s4)s3)c2)[C@H](O)[C@@H](O)[C@@H]1O` [Example 189, (2S,3R,4R,5S,6R)-2-(4-Chloro-3-((2-(5-chlorothiophen-2-yl)thiazol-5-yl)methyl)phenyl)-6-(hydroxymethyl)tetrahydro-2H-pyran-3,4,5-triol] was run?
Answer: Its IC50 is 8.64 nM.

Question: `OC[C@H]1O[C@@H](c2ccc(Cl)c(Cc3cnc(-c4ccsc4)s3)c2)[C@H](O)[C@@H](O)[C@@H]1O` [Example 190, (2S,3R,4R,5S,6R)-2-(4-Chloro-3-((2-(thiophen-3-yl)thiazol-5-yl)methyl)phenyl)-6-(hydroxymethyl)tetrahydro-2H-pyran-3,4,5-triol] was tested. Which IC50 did it give?
Answer: The IC50 was 0.901 nM.

Question: How did the IC50 turn out when `OC[C@H]1O[C@@H](c2ccc(Cl)c(Cc3cnc(-c4cocn4)s3)c2)[C@H](O)[C@@H](O)[C@@H]1O` [Example 191, (2S,3R,4R,5S,6R)-2-(4-Chloro-3-((2-(oxazol-4-yl)thiazol-5-yl)methyl)phenyl)-6-(hydroxymethyl)tetrahydro-2H-pyran-3,4,5-triol] was run?
Answer: Its IC50 is 45.4 nM.

Question: With `OC[C@H]1O[C@@H](c2ccc(Cl)c(Cc3cnc(-c4ccno4)s3)c2)[C@H](O)[C@@H](O)[C@@H]1O` [Example 192, (2S,3R,4R,5S,6R)-2-(4-Chloro-3-((2-(isoxazol-5-yl)thiazol-5-yl)methyl)phenyl)-6-(hydroxymethyl)tetrahydro-2H-pyran-3,4,5-triol] as the molecule, how does the IC50 read?
Answer: Its IC50 is 20.2 nM.

Question: Which IC50 does the source give for `OC[C@H]1O[C@@H](c2ccc(Cl)c(Cc3cnc(-c4cscn4)s3)c2)[C@H](O)[C@@H](O)[C@@H]1O` [Example 193, (2S,3R,4R,5S,6R)-2-(3-(2,4′-Bithiazol-5-ylmethyl)-4-chlorophenyl)-6-(hydroxymethyl)tetrahydro-2H-pyran-3,4,5-triol] here?
Answer: The IC50 was 17.7 nM.

Question: How did the IC50 turn out when `OC[C@H]1O[C@@H](c2ccc(Cl)c(Cc3cnc(-c4ccc(F)cc4)s3)c2)[C@H](O)[C@@H](O)[C@@H]1O` [Example 194, (2S,3R,4R,5S,6R)-2-(4-Chloro-3-((2-(4-fluorophenyl)thiazol-5-yl)methyl)phenyl)-6-(hydroxymethyl)tetrahydro-2H-pyran-3,4,5-triol] was run?
Answer: The IC50 was 6.39 nM.

Question: With `OC[C@H]1O[C@@H](c2ccc(Cl)c(Cc3cnc(-c4cnccn4)s3)c2)[C@H](O)[C@@H](O)[C@@H]1O` [Example 195] as the molecule, how does the IC50 read?
Answer: Its IC50 is 4.35 nM.

Question: Which IC50 does the source give for `CSc1ncc(Cc2cc([C@@H]3O[C@H](CO)[C@@H](O)[C@H](O)[C@H]3O)ccc2Cl)s1` [Example 197, (2S,3R,4R,5S,6R)-2-(4-Chloro-3-((2-(methylthio)thiazol-5-yl)methyl)phenyl)-6-(hydroxymethyl)tetrahydro-2H-pyran-3,4,5-triol] here?
Answer: Its IC50 is 9.48 nM.

Question: Which IC50 does the source give for `CCCSc1ncc(Cc2cc([C@@H]3O[C@H](CO)[C@@H](O)[C@H](O)[C@H]3O)ccc2Cl)s1` [Example 198, (2S,3R,4R,5S,6R)-2-(4-Chloro-3-((2-(propylthio)thiazol-5-yl)methyl)phenyl)-6-(hydroxymethyl)tetrahydro-2H-pyran-3,4,5-triol] here?
Answer: The IC50 was 15.4 nM.

From patent publication US8586550B2, “Thiazole derivatives as SGLT2 inhibitors and pharmaceutical composition comprising same” (Green Cross Corporation, priority 2010, dated 2013)
